What is called Papp B→A is how fast a substance crosses the layer from the basolateral side. Usually efflux ratio stands for a quotient of directional permeabilities that is used to spot active efflux. As a reminder, the IC50 is the midpoint of a concentration-inhibition curve. A lower IC50 goes with greater potency in that assay.

SMILES strings stand for the structures.

System in one data set: not listed separately
In words: Cell permeability, flux assay using Caco-2 cells. The following applies: human, Caco-2. The method, then:
C-3 In Vitro Tests for Determining Cell Permeability
The cell permeability of a substance can be investigated by means of in vitro testing in a flux assay using Caco-2 cells [M. D. Troutman and D. R. Thakker, Pharm. […] For this purpose, the cells were cultured for 15-16 days on 24-well filter plates. For the determination of permeation, the respective working example was applied in a HEPES buffer to the cells either apically (A) or basally (B) and incubated for 2 hours. After 0 hours and after 2 hours, samples were taken from the cis and trans compartments. The samples were separated by HPLC (Agilent 1200, Böblingen, Germany) using reverse phase columns.
Of critical importance for toxophores which are released intracellularly is the permeability from B to A [Papp(B-A)] and the ratio of Papp(B-A) to Papp(A-B) (efflux ratio): the lower this permeability, the slower the active and passive transport processes of the substance through the monolayer of Caco-2 cells.
Turning to `CC(C)(C)[C@H](c1nc(-c2cc(F)ccc2F)cn1Cc1ccccc1)N(CC[C@H](N)C(=O)NCCCC[C@H](N)C(=O)O)C(=O)CO.O=C(O)C(F)(F)F` [Example 59, N^6-{(2S)-2-Amino-4-[{(1R)-1-[1-benzyl-4-(2,5-difluorophenyl)-1H-imidazol-2-yl]-2,2-dimethylpropyl}(glycoloyl)amino]butanoyl}-L-lysine trifluoroacetic acid (1:1)], the Papp B→A at 2 h stood at 2.2 ×10⁻⁶ cm/s and the efflux ratio at 2 h came out at 4.8.
As for `CC(C)(C)[C@H](c1nc(-c2cc(F)ccc2F)cn1Cc1ccccc1)N(CC[C@H](N)C(=O)NCCN1C(=O)CC(SC[C@H](N)C(=O)O)C1=O)C(=O)CO` (stereo partly drawn) [Example 61, S-{1-[2-({(2S)-2-Amino-4-[{(1R)-1-[1-benzyl-4-(2,5-difluorophenyl)-1H-imidazol-2-yl]-2,2-dimethylpropyl}(glycoloyl)amino]butanoyl}amino)ethyl]-2,5-dioxopyrrolidin-3-yl}-L-cysteine], the Papp B→A at 2 h worked out at 4.4 ×10⁻⁶ cm/s and the efflux ratio at 2 h was 7.4.
Regarding `CC(C)(C)[C@H](c1nc(-c2cc(F)ccc2F)cn1Cc1ccccc1)N(CC[C@H](N)C(=O)NCCOCCN1C(=O)CC(SC[C@H](N)C(=O)O)C1=O)C(=O)CO` (some centres unmarked) [Example 62], the Papp B→A at 2 h was found to be 5 ×10⁻⁶ cm/s and the efflux ratio at 2 h came out at 6.
Take `CC(C)[C@H](NC(=O)CCCCCN1C(=O)CC(SC[C@H](N)C(=O)O)C1=O)C(=O)N[C@@H](C)C(=O)N[C@@H](CCCCNC(=O)[C@@H](N)CCN(C(=O)CO)[C@@H](c1nc(-c2cc(F)ccc2F)cn1Cc1ccccc1)C(C)(C)C)C(=O)O.O=C(O)C(F)(F)F` (stereo partly drawn) [Example 63, N-[6-(3-{[(2R)-2-Amino-2-carboxyethyl]sulfanyl}-2,5-dioxopyrrolidin-1-yl)hexanoyl]-L-valyl-L-alanyl-N^6-{(2S)-2-amino-4-[{(1R)-1-[1-benzyl-4-(2,5-difluorophenyl)-1H-imidazol-2-yl]-2,2-dimethylpropyl}(glycoloyl)amino]butanoyl}-L-lysine trifluoroacetic acid (1:1)]: the apparent permeability from basolateral to apical (Papp B→A) at 2 h is 0.098 ×10⁻⁶ cm/s and the efflux ratio at 2 h turned out to be 1.1.
The matching figures for `CC(C)(C)[C@H](c1nc(-c2cc(F)ccc2F)cn1Cc1ccccc1)N(CC[C@H](N)C(=O)NCCNC(=O)CN1C(=O)CC(SC[C@H](N)C(=O)O)C1=O)C(=O)CO.O=C(O)C(F)(F)F` (stereo partly drawn) [Example 64, S-[1-(2-{[2-({(2S)-2-Amino-4-[{(1R)-1-[1-benzyl-4-(2,5-difluorophenyl)-1H-imidazol-2-yl]-2,2-dimethylpropyl}(glycoloyl)amino]butanoyl}amino)ethyl]amino}-2-oxoethyl)-2,5-dioxopyrrolidin-3-yl]-L-cysteine trifluoroacetic acid (1:1)]: 1 ×10⁻⁶ cm/s and 2.8.
As to `CC(C)(C)[C@H](c1nc(-c2cc(F)ccc2F)cn1Cc1ccccc1)N(CC[C@H](N)C(=O)NN)C(=O)CO.O=C(O)C(F)(F)F` [Example 77, Trifluoroacetic acid/N-[(3S)-3-amino-4-hydrazino-4-oxobutyl]-N-{(1R)-1-[1-benzyl-4-(2,5-difluorophenyl)-1H-imidazol-2-yl]-2,2-dimethylpropyl}-2-hydroxyacetamide (1:1)], the Papp B→A at 2 h came out at 48 ×10⁻⁶ cm/s and the efflux ratio at 2 h amounted to 47.
Turning to `CC(C)(C)[C@H](c1nc(-c2cc(F)ccc2F)cn1Cc1ccccc1)N(CC[C@H](N)C(=O)NCCC(=O)O)C(=O)CO` [Example 79, N-{(2S)-2-Amino-4-[{(1R)-1-[1-benzyl-4-(2,5-difluorophenyl)-1H-imidazol-2-yl]-2,2-dimethylpropyl}(glycoloyl)amino]butanoyl}-beta-alanine], the Papp B→A at 2 h came to 5.8 ×10⁻⁶ cm/s.
Same read-out and setting: as for `CC(C)(C)[C@H](c1cc(-c2cc(F)ccc2F)cn1Cc1ccccc1)N(CC[C@H](N)C(=O)NCCOCCN1C(=O)CC(SC[C@H](N)C(=O)O)C1=O)C(=O)CO.O=C(O)C(F)(F)F` (stereo partly drawn) [Example 251, S-(1-{2-[2-({(2S)-2-Amino-4-[{(1R)-1-[1-benzyl-4-(2,5-difluorophenyl)-1H-pyrrol-2-yl]-2,2-dimethylpropyl}(glycoloyl)amino]butanoyl}amino)ethoxy]ethyl}-2,5-dioxopyrrolidin-3-yl)-L-cysteine/trifluoroacetic acid (1:1)], the figure is 2.1 ×10⁻⁶ cm/s.

The target of the next data set is T1, human kinesin spindle protein KSP/Eg5 (Homo sapiens, UniProt P52732).
T1 construct: The motor domain of the human kinesin spindle protein KSP/Eg5; purchased tebu-bio/Cytoskeleton Inc 027EG01-XL
T1 sequence (P52732 18-359 limits assumed): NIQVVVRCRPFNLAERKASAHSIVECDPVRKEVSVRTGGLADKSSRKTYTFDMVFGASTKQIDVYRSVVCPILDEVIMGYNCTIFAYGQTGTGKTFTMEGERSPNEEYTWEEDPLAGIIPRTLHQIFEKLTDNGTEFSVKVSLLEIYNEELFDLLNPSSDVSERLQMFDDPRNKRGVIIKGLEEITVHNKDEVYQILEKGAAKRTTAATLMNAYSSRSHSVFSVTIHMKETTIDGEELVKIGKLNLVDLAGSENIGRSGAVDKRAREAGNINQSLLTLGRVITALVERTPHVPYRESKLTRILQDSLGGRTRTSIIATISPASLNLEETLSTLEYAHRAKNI
Briefly: Inhibition of the kinesin spindle protein KSP/Eg5 (ATPase, malachite green). The class given is biochemical. The following applies: 10 nM KSP motor domain, 500 μM ATP, 2 h RT. The method, then: C-1b Determination of the Inhibition of the Kinesin Spindle Protein KSP/Eg5 by Selected Examples
The motor domain of the human kinesin spindle protein KSP/Eg5 (from tebu-bio/Cytoskeleton Inc, No. 027EG01-XL) is incubated at a concentration of 10 nM with 50 μg/ml taxol- (from Sigma No. T7191-5MG) stabilized microtubuli (bovine or porcine, from tebu-bio/Cytoskeleton Inc) for 5 min at RT in 15 mM PIPES, pH 6.8 (5 mM MgCl2 and 10 mM DTT, from Sigma). The freshly prepared mixture is aliquoted into a 384-well MTP. The inhibitors to be examined at concentrations of 1.0×10^−6 M to 1.0×10^−13 and ATP (final concentration 500 μM, from Sigma) are then added. Incubation is at RT for 2 h. ATPase activity is detected by detecting the inorganic phosphate formed using malachite green (from Biomol). […] The individual data of the dose-activity curve are eight-fold determinations. The IC50 values are means of three independent experiments.
The compound `CC(C)(C)[C@H](c1nc(-c2cc(F)ccc2F)cn1Cc1ccccc1)N(CC(CN)CS)C(=O)CO` (single isomer, unassigned; isomer 1) [Example 93] gave a half-maximal inhibitory concentration (IC50) of 2.52 nM.
`CC(C)(C)[C@H](c1nc(-c2cc(F)ccc2F)cn1Cc1ccccc1)N(CC(CN)CS)C(=O)CO` (single isomer, unassigned; isomer 2) [Example 94] had an IC50 of 5.14 nM.
The same measure, in the same setting: the figure for `CC(C)(C)[C@H](c1nc(-c2cc(F)ccc2F)cn1Cc1ccccc1)N(CC[C@H](N)C(=O)NCCCC[C@H](N)C(=O)O)C(=O)CO.O=C(O)C(F)(F)F` [Example 59, N^6-{(2S)-2-Amino-4-[{(1R)-1-[1-benzyl-4-(2,5-difluorophenyl)-1H-imidazol-2-yl]-2,2-dimethylpropyl}(glycoloyl)amino]butanoyl}-L-lysine trifluoroacetic acid (1:1)] is 4.27 nM; for `CC(C)[C@H](NC(=O)CCCCCN1C(=O)CC(SC[C@H](N)C(=O)O)C1=O)C(=O)N[C@@H](C)C(=O)N[C@@H](CCCCNC(=O)[C@@H](N)CCN(C(=O)CO)[C@@H](c1nc(-c2cc(F)ccc2F)cn1Cc1ccccc1)C(C)(C)C)C(=O)O.O=C(O)C(F)(F)F` (stereo partly drawn) [Example 63, N-[6-(3-{[(2R)-2-Amino-2-carboxyethyl]sulfanyl}-2,5-dioxopyrrolidin-1-yl)hexanoyl]-L-valyl-L-alanyl-N^6-{(2S)-2-amino-4-[{(1R)-1-[1-benzyl-4-(2,5-difluorophenyl)-1H-imidazol-2-yl]-2,2-dimethylpropyl}(glycoloyl)amino]butanoyl}-L-lysine trifluoroacetic acid (1:1)] it is 2.88 nM; for `CC(C)(C)[C@H](c1nc(-c2cc(F)ccc2F)cn1Cc1ccccc1)N(CC[C@H](N)C(=O)NCCNC(=O)CN1C(=O)CC(SC[C@H](N)C(=O)O)C1=O)C(=O)CO.O=C(O)C(F)(F)F` (stereo partly drawn) [Example 64, S-[1-(2-{[2-({(2S)-2-Amino-4-[{(1R)-1-[1-benzyl-4-(2,5-difluorophenyl)-1H-imidazol-2-yl]-2,2-dimethylpropyl}(glycoloyl)amino]butanoyl}amino)ethyl]amino}-2-oxoethyl)-2,5-dioxopyrrolidin-3-yl]-L-cysteine trifluoroacetic acid (1:1)] it is 3.06 nM.
In turn, `CC(C)(C)[C@H](c1nc(-c2cc(F)ccc2F)cn1Cc1ccccc1)N(CC[C@H](N)C(=O)N(N)CC(=O)O)C(=O)CO` [Example 81, (1-{(2S)-2-Amino-4-[{(1R)-1-[1-benzyl-4-(2,5-difluorphenyl)-1H-imidazol-2-yl]-2,2-dimethylpropyl}(glycoloyl)amino]butanoyl}hydrazino)acetic acid/trifluoroacetic acid (1:2)] gave an IC50 of 1.42 nM.
`CC(C)(C)[C@H](c1nc(-c2cc(F)ccc2F)cn1Cc1ccccc1)N(CCCN)C(=O)c1ccc(N)cc1` [Example 95, Trifluoroacetic acid/4-amino-N-(3-aminopropyl)-N-{(1R)-1-[1-benzyl-4-(2,5-difluorophenyl)-1H-imidazol-2-yl]-2,2-dimethylpropyl}benzamide (2:1)]: the IC50 was 3.05 nM.
On the same count and under the same terms, the figure for `CC(C)(C)[C@H](c1nc(-c2cc(F)ccc2F)cn1Cc1ccccc1)N(CCCNC(=O)[C@@H](N)CCCNC(N)=O)C(=O)CO` [Example 100, Trifluoroacetic acid/N-{3-[{(1R)-1-[1-benzyl-4-(2,5-difluorophenyl)-1H-imidazol-2-yl]-2,2-dimethylpropyl}(glycoloyl)amino]propyl}-N5-carbamoyl-L-ornithinamide (1:1)] is 5.99 nM; for `CC(C)[C@H](N)C(=O)N[C@@H](CCCNC(N)=O)C(=O)NCCCN(C(=O)CO)[C@@H](c1nc(-c2cc(F)ccc2F)cn1Cc1ccccc1)C(C)(C)C` [Example 101, Trifluoroacetic acid/L-valyl-N-{3-[{(1R)-1-[1-benzyl-4-(2,5-difluorophenyl)-1H-imidazol-2-yl]-2,2-dimethylpropyl}(glycoloyl)amino]propyl}-N5-carbamoyl-L-ornithinamide (1:1)] it is 4.28 nM; for `CC(C)(C)[C@H](c1cc(-c2cc(F)ccc2F)cn1Cc1ccccc1)N(CC[C@H](N)C(=O)N[C@@H](CO)C(=O)O)C(=O)CO` [Example 201, N-{(2S)-2-Amino-4-[{(1R)-1-[1-benzyl-4-(2,5-difluorophenyl)-1H-pyrrol-2-yl]-2,2-dimethylpropyl}(glycoloyl)amino]butanoyl}-L-serine/trifluoroacetic acid (1:1)] it is 0.179 nM.
Consider `CC(C)(C)[C@H](c1cc(-c2cc(F)ccc2F)cn1Cc1ccccc1)N(CC[C@H](N)C(=O)NCC(=O)O)C(=O)CO` [Example 203, N-{(2S)-2-Amino-4-[{(1R)-1-[1-benzyl-4-(2,5-difluorophenyl)-1H-pyrrol-2-yl]-2,2-dimethylpropyl}(glycoloyl)amino]butanoyl}glycine/trifluoroacetic acid (1:1)], for which half-maximal inhibition (IC50) was put at 0.23 nM.
On the same count and under the same terms, as for `CC(C)(C)[C@H](c1cc(-c2cc(F)ccc2F)cn1Cc1ccccc1)N(CC[C@H](N)C(=O)NCCNC(=O)CNC(=O)CC1SC[C@@H](C(=O)O)NC1=O)C(=O)CO` (stereo partly drawn) [Example 256, (3R)-6-{(11S,15R)-11-Amino-15-[1-benzyl-4-(2,5-difluorophenyl)-1H-pyrrol-2-yl]-14-glycoloyl-16,16-dimethyl-2,5,10-trioxo-3,6,9,14-tetraazaheptadec-1-yl}-5-oxothiomorpholine-3-carboxylic acid/trifluoroacetic acid (1:1)], the figure is 16.4 nM.

The values are drawn from patent publication US10022453B2 (BAYER PHARMA AKTIENGESELLSCHAFT, priority 2013, dated 2018).
